# Marks after values point to notes of the source that are not given here.
# Tests used:
# [1] = tested on: pure tubulin; assay: Tubulin polymerization test with pure tubulin without GTP; type: biochemical, bovine; conditions: no GTP
# In short: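 GTP-free polymerization using >99% pure bovine brain tubulin in PEM buffer (pH 6.9); centrifuged supernatant added to compounds. Duplicates at six 3-fold dilutions from 24.3 μM, read at 35°.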
# [2] = tested on: tubulin heterodimer; assay: Competitive binding test, [3H]colchicine; parameters: species or system bovine; conditions: [3H]colchicine 50 nM
# Procedure: (§1) Medium is RPMI-1640 with L-glutamine, supplemented with 10% heat-inactivated fetal calf serum, 100 units/ml penicillin, and 100 μg/ml streptomycin (Gibco, Grand Island, N.Y.). Microtubule-associated protein (MAP)-rich tubulin, containing about 70% tubulin and 30% MAPs (#ML113), and highly purified tubulin (>99% pure, #TL238), both from bovine brain, are obtained from Cytoskeleton, Inc., Denver, Colo. PEM buffer (80 mM piperazine-N,N′-bis[2-ethanesulfonic acid], pH 6.9, 1 mM ethylene glycol-bis(β-aminoethyl ether)-N,N,N′,N′-tetraacetic acid, 1 mM magnesium chloride) and guanosine 5′-triphosphate (GTP) are also obtained from Cytoskeleton. [3H]paclitaxel, specific activity 14.7 Ci/mmol, is purchased from Moravek Biochemicals (Brea, Calif.). [^3H]vinblastine, specific activity 9.60 Ci/mmol and MicroSpin G-50 columns are obtained from Amersham Biosciences (Piscataway, N.J.). […] Other reagents are obtained from Sigma (St. Louis, Mo.).
# (§2) The binding of examples of this invention to highly purified tubulin is studied by competitive inhibition methods. […] To study possible competition at the taxane site, on the other hand, polymerized tubulin (microtubules) is used because paclitaxel binds preferentially to microtubules.
# (§3) Highly purified tubulin is dissolved in PEM buffer without GTP and used at a final concentration of 1.0 to 1.3 mg/ml (10 to 13 μM). […] These solutions are incubated at 24° for 1 hr and then applied to MicroSpin G-50 columns which are centrifuged for 2 min at 3000 rpm in an Eppendorf 5415C microfuge. An aliquot of each column effluent (containing tubulin and bound radioligand) is mixed with scintillation fluid and counted in a liquid scintillation spectrometer. […] The ability of the competitor to inhibit the binding of the radioligand is expressed as a percentage of control binding in the absence of any competitor.
# [3] = tested on: LOX Human Melanoma; assay: Human tumor xenograft test, LOX; type: in vivo, athymic mice; conditions: for tumor growth inhibition (activity call): LOX melanoma; for T/C on day 0 / T/C on day 7 / T/C on day 13: LOX, days 1, 5, 9, 13
# Procedure: The ability of compounds of this invention to inhibit tumor growth in animals is studied in the athymic mouse xenograft standard pharmacological test. Female nu/nu mice in an outbred albino background are obtained from Charles River Laboratories (Wilmington, Mass.). Animals are injected subcutaneously on the flank with the desired tumor cell suspension. Several days later, mice with tumors of approximately 150 mm^3 are selected from those injected (staged) and randomly distributed into groups of 5-10. The day of staging is called day 0. Compounds of the invention, usually formulated in saline (exceptions are noted in tables), are administered to animals by intravenous injection or oral gavage on various schedules starting on day 0 or 1, as noted in the tables. The control group in each experiment is dosed with vehicle on the same schedule. Tumor size is measured every 3-7 days with calipers in two orthogonal dimensions, and tumor volume is calculated from the formula volume=[(length×width^2)/2].
# Tumor/Control (T/C) is obtained by dividing the mean tumor volume of the treated group by the mean tumor volume of the control group on each measurement day. A treatment dose is defined as active if it produced a statistically significant T/C of 0.50 or less. A p value≦0.05, determined by one-side Student's t-test, is required for statistical significance. A treatment dose is defined as toxic if more than 10% of the animals died from a compound-related toxicity.
# [4] = tested on: tubulin heterodimer; assay: Competitive binding test, [3H]vinblastine; parameters: species or system bovine; conditions: [3H]vinblastine 100 nM
# Procedure: as §1, §2, §3
compound,measurement,setting,value
"C[C@H](Nc1c(-c2c(F)cc(OCCCN(C)C)cc2F)c(Cl)nc2ncnn12)C(F)(F)F.Cl [Example 1a, 5-chloro-6-{4-[3-(dimethylamino)propoxy]-2,6-difluorophenyl}-N-[(1S)-2,2,2-trifluoro-1-methylethyl][1,2,4]triazolo[1,5-a]pyrimidin-7-amine hydrogen chloride Salt]","absorbance increase, polymerization of pure tubulin",[1]; 2.7 μM,no effect
same,"absorbance increase, polymerization of pure tubulin",[1]; 8.1 μM,lower and less rapid increase
same,A340 at 0 min,[1]; 24.3 μM,0
same,A340 at 5 min,[1]; 24.3 μM,0.22
same,A340 at 10 min,[1]; 24.3 μM,0.23
same,A340 at 15 min,[1]; 24.3 μM,0.22
same,A340 at 20 min,[1]; 24.3 μM,0.21
same,"absorbance increase, polymerization of pure tubulin","[1]; 24.3 μM, first 5 min",rapid increase in absorbance
same,"[3H]Colchicine binding, percent of control without competitor, Mean",[2],129%
same,tumor growth inhibition (activity call),"[3]; 1 mg/kg intravenously on days 1, 5, 9, and 13",not at 1 mg/kg
same,tumor growth inhibition (activity call),"[3]; 6 and 3 mg/kg intravenously on days 1, 5, 9, and 13",active
same,T/C on day 0,[3]; 1 mg/kg IV,1.00
same,T/C on day 7,[3]; 1 mg/kg IV,0.80
same,T/C on day 13,[3]; 1 mg/kg IV,1.02
same,T/C on day 0,[3]; 3 mg/kg IV,1.00
same,T/C on day 7,[3]; 3 mg/kg IV,0.13**
same,T/C on day 13,[3]; 3 mg/kg IV,0.17*
same,T/C on day 0,[3]; 6 mg/kg IV,1.00
same,T/C on day 7,[3]; 6 mg/kg IV,0.12**
same,T/C on day 13,[3]; 6 mg/kg IV,0.07**
same,"[3H]Vinblastine binding, percent of control without competitor, Mean",[4],12%
